Here are results for 6 compounds from patent publication US9446063B2, “Methods for treating type-2 diabetes and obesity” (priority 2009, dated 2016).

Each structure is given as a SMILES string. Where two headings read alike, the source gives them in different places. Marks after values point to notes of the source that are not given here.

Data set [1] is described as follows: HPLC quantification of ascorbic acid, chlorogenic acid, caffeic acid, ferulic acid and rutin in tubers, tuber tissues and extracts. The settings on record: for % reduction; from 1 to 7 months storage (HPLC content): tubers of 12 Canadian-grown cultivars, cold storage.
Procedure: This assay was based on the method developed by Shakya and Navarre (J Agric Food Chem (2006) 54:5253-5260). Initially, samples (50 mg of freeze-dried powder) were extracted in 0.9 mL of extraction buffer (50% MeOH, 2.5% metaphosphoric acid, 1 mM EDTA) in a 2 mL screw cap tube. Samples were vortexed for 30 sec and centrifuged at 11,070×g for 15 min at 4° C. The supernatant was transferred to a 1.5 mL glass vial. The remaining pellet was re-extracted with 0.6 mL of extraction buffer and centrifuged. The supernatants were combined and concentrated in a Speed Vac (Thermo Savant SC 210A, Waltham, Mass.). The concentrated samples were solubilised with 500 mL of extraction buffer and filtered using 0.45 mm membrane filters (Durapore, PVDF) into 1 mL HPLC glass vials. Samples were kept chilled at all times and shielded from bright light. Samples were analyzed using a Varian HPLC system with a quaternary gradient pump, a single wavelength UV/VIS detector, and an autosampler with refrigerated sample compartment (Varian Canada Inc, Mississauga, ON). Samples were eluted using an Onyx reverse-phase HPLC column (100×4.5 mm) (Phenomenex, Netherlands), a solvent flow rate of 2 mL/min and a solvent gradient of 0-1 min 100% buffer A (10 mM formic acid, pH 3.5, with NH4OH), 1-5 min 0-30% buffer B (100% methanol with 5 mM ammonium formate), 5-6.5 min 40-0% buffer B, 6.5-8.5 min 70-100% buffer B. The phenolic acids in the samples were analyzed qualitatively and quantitatively using standards.
Ascorbic acid concentration was also determined as it is also an important antioxidant compound present in potato. HPLC determination is based on the retention time of a particular compound within a mixed sample in the column compared with purchased pure standards. Three different buffers (Buffer A, Buffer B, & Extraction buffer) were prepared. Buffer A was 10 mM formic acid (Fisher Scientific, ON, Canada) (0.46 g of formic acid in 1 L distilled water adjusted to pH 3.5 using 1M NH4OH solution). Buffer A was kept in a fridge (4° C.) until used. Buffer B was 5 mM ammonium formate (Sigma-Aldrich Chemicals, Germany) (0.32 g of ammonium formate in 1 L 100% methanol with agitation on a magnetic stirrer as ammonium formate is highly insoluble). Buffer B was also refrigerated. The extraction buffer was 50% methanol (Fisher Scientific, ON, Canada), 2.5% metaphosphoric acid (Aldrich Chemicals, WI, USA) and 1 mM ethylenediaminetetraacetic acid (EDTA; Sigma-Aldrich Chemicals, Germany) (50 ml of 100% methanol, 2.5 g of metaphosphoric acid, and 0.4 g of EDTA in 100 ml distilled water with stirring followed by filtering using a cup filter (Millipore Corporation, MS, USA). The extraction buffer was also refrigerated. […]
Data set [2] relates to C57BL/6J mice with diet-induced obesity. Briefly: Body weight gain in high fat diet feeding study (10 wk). The data set is classed as in vivo. The settings on record: for Body weight gain: mean ± SD (n = 3-5).
Data set [3] shares this test system. Briefly: Blood glucose concentration at the end of the HFD feeding period. The settings on record: mean ± SD (n = 3-5).
For data set [4], the system named is carnitine palmitoyltransferase. The settings on record: cited from earlier work.
Data set [5] relates to IL-8 release in Caco-2 cell cultures. The settings on record: cited from earlier work.
Data set [6] deals with potato microtubers of cvs. Onaway and Goldrush. Put plainly: H2O2 hormesis: antioxidant capacity (DPPH) of in vitro-grown microtubers. The settings on record: for DPPH total antioxidant capacity of microtubers: mean ± SE (n = 5). As for the experimental part:
Plantlets of cvs. Onaway and Goldrush were selected for their relatively high concentrations of antioxidants in field-grown tubers. […] Medium consisted of basal salt solution and organic fraction solidified with 7 g 1^-1 agar ([…]) adjusted to pH 5.7 before autoclaving at 121° C. for 20 min. […] (1994). […] Phase I promoted the vegetative growth of plantlets which was luxurious after 4 weeks. In Phase II, the residual medium was drained and replaced with 150 ml of liquid induction medium containing increased sucrose (80 gl^-1) and no growth regulators. […] Phase II plantlets of cvs. […] At harvest, microtubers of cvs. […] (2007).
A general note: DPPH is a stable violet radical that fades when it is reduced.

The test system is the same in data set [7]. Put plainly: H2O2 hormesis: total phenolic content of microtubers (Folin-Ciocalteu). The settings on record: for Total phenolics (Folin-Ciocalteu) of microtubers: mean ± SE (n = 5). How it is done:
(§1) Based on a preliminary study, concentrations of 2 and 4 mM H2O2 and spray volume of ˜6 ml were selected for hormetic treatments. Phase II plantlets of cvs. Onaway and Goldrush (at 2- and 3-weeks) were treated with three concentrations (0, 2, 4 mM) of H2O2 with 5 replicates×4 containers per replicate (20 containers per treatment). Results were analyzed for variance (ANOVA) test using General Linear Model (GLM) of Statistical Analysis System (SAS) (SAS v 9.2, 2010) (SAS Institute Inc., Cary, N.C., USA). Means were compared using Duncan's Multiple Comparison test (P≦0.05).
(§2) At harvest, microtubers of cvs. Onaway and Goldrush were weighed, and averaged from 20 separate containers. For each replicate, microtubers were pooled for analysis, for a total of 5 samples per treatment/cultivar.

The test system is the same in data set [8]. The settings on record: for Increase of ascorbic acid content in comparison to control: cv. Goldrush microtubers; for Ascorbic acid of microtubers / Caffeic acid of microtubers / Chlorogenic acid of microtubers: mean ± SE (n = 5). As for the experimental part: as §1, §2
Data set [9] has the same test system. Put plainly: H2O2 hormesis: microtuber mass / yield. The settings on record: for Microtuber mass: mean of 20 containers. How it is done: (1994). […] Cultures were placed into a growth chamber adjusted to 20±2° C. under 85 μmol m^-2s^-1 cool white florescent illumination with 16:8 h day:night cycle. Phase I promoted the vegetative growth of plantlets which was luxurious after 4 weeks. In Phase II, the residual medium was drained and replaced with 150 ml of liquid induction medium containing increased sucrose (80 gl^-1) and no growth regulators. Phase II incubation occurred at cooler temperature (15±2° C.), under reduced illumination (50 μmol m^-2s^-1), and reversed (8:16 h) day:night cycle. […] Phase II plantlets of cvs. […] At harvest, microtubers of cvs. […] (2007).

For another data set, the system named is male mice. The settings on record: high fat diet, 1 g/kg diet; cited from earlier work.
The mark [10] stands for this setting: Females, HFD + 1X (1x CGA 8 mg/kg HFD; 1x FA 20 mg/kg HFD).
[11] abbreviates: Females, HFD + 5X (1x CGA 8 mg/kg HFD; 1x FA 20 mg/kg HFD).
Setting [12] is: Females, HFD + 25X (1x CGA 8 mg/kg HFD; 1x FA 20 mg/kg HFD).
[13] abbreviates: Males, HFD + 1X (1x CGA 8 mg/kg HFD; 1x FA 20 mg/kg HFD).
[14] abbreviates: Males, HFD + 5X (1x CGA 8 mg/kg HFD; 1x FA 20 mg/kg HFD).
The mark [15] stands for this setting: Males, HFD + 25X (1x CGA 8 mg/kg HFD; 1x FA 20 mg/kg HFD).

Turning to `COc1cc(/C=C/C(=O)O)ccc1O` [ferulic acid], the “% reduction; from 1 to 7 months storage (HPLC content)” value (“% reduction … (HPLC content)” below) in data set [1] was 90.21%. In addition, the Body weight gain in data set [2] (setting [10]) was 9.7 ± 3.4^a g; in [2] (setting [11]), 6.3 ± 1.2^a g; in [2] (setting [12]), 8.8 ± 5.0^a g; in data set [2] (setting [13]) it was 12.4 ± 3.7^a,b,c g; in data set [2] (setting [14]), 10.8 ± 2.3^a,b,c g; in [2] (setting [15]), 11.0 ± 6.5^a,b,c g. Further, the “Effect of pure compound on body weight gain” value in [2] (both sexes, up to 500 mg/kg diet) is recorded as “ineffective in suppressing body weight gain”. The Fasting blood glucose is on record as 3.8 ± 0.6^a mmol/L in data set [3] (setting [10]); 6.9 ± 1.1^a mmol/L in [3] (setting [11]); 4.7 ± 1.6^a mmol/L in data set [3] (setting [12]); 5.2 ± 0.6^b mmol/L in data set [3] (setting [13]); 6.1 ± 1.2^a mmol/L in data set [3] (setting [14]); 5.4 ± 0.2^b mmol/L in [3] (setting [15]).
On to `O=C1O[C@H]([C@@H](O)CO)C(O)=C1O` [ascorbic acid], for which the “% reduction of ascorbic acid with storage” value in data set [1] (tubers of 5 foreign cultivars, 1 to 7 months storage) turned out to be 36.09%. Further, the “% reduction … (HPLC content)” value in data set [1] was determined as 80.48%.
Consider `O=C(/C=C/c1ccc(O)c(O)c1)O[C@@H]1C[C@@](O)(C(=O)O)C[C@@H](O)[C@@H]1O` [neochlorogenic acid], for which the Carnitine palmitoyltransferase activity result in data set [4] is “enhanced”.
With `O=C(O)/C=C/c1ccc(O)c(O)c1` [caffeic acid], the “% reduction … (HPLC content)” value in data set [1] came to 92.16%. Besides, in data set [5], the “Dose needed to suppress IL-8 secretion to levels seen in control cultures” value was 2000 µM.
Regarding `OO` [H2O2, Hydrogen peroxide], the “Increase of antioxidant capacity (DPPH) over control” value is listed as 26% in data set [6] (cv. Goldrush microtubers, 2 mM H2O2 spray); 20% in data set [6] (cv. Goldrush microtubers, 4 mM H2O2 spray); 12-14% in data set [6] (cv. Onaway microtubers, 2 or 4 mM H2O2). In addition, the “DPPH total antioxidant capacity of microtubers” value in [6] (cv. Goldrush, 2 mM H2O2 spray) was 1.316 ± 0.02^a mg/g; in [6] (cv. Goldrush, 4 mM H2O2 spray), 1.214 ± 0.04^b mg/g; in [6] (cv. Onaway, 2 mM H2O2 spray), 0.862 ± 0.02^a mg/g; in [6] (cv. Onaway, 4 mM H2O2 spray), 0.882 ± 0.04^a mg/g. Moreover, the “Total phenolics (Folin-Ciocalteu) of microtubers” value in data set [7] (cv. Goldrush, 2 mM H2O2 spray) is listed as 7.076 ± 0.01^a mg/g; in [7] (cv. Goldrush, 4 mM H2O2 spray), 6.354 ± 0.00^a mg/g; in [7] (cv. Onaway, 2 mM H2O2 spray) it was 4.376 ± 0.00^a mg/g; in data set [7] (cv. Onaway, 4 mM H2O2 spray), 3.789 ± 0.00^a mg/g. In addition, the “Effect on total polyphenolic levels (Folin-Ciocalteu)” value in data set [7] (either cultivar, 2 and 4 mM) was “not significantly affected”. Also, the “Increase of ascorbic acid content in comparison to control” value in data set [8] (2 mM) was 35%; in data set [8] (4 mM), 34%. Besides, the “Effect on microtuber caffeic acid content” value in [8] (cv. Goldrush, 2 mM) was “significant depression”. Moreover, the “Increase of microtuber chlorogenic acid content” value stood at 16.8% in [8] (cv. Goldrush, 2 mM) and 17.3% in data set [8] (cv. Onaway, 2 mM). Besides, the “Ascorbic acid of microtubers” value in [8] (cv. Goldrush, 2 mM H2O2 spray) was 0.269 ± 0.03^a mg/g; in data set [8] (cv. Goldrush, 4 mM H2O2 spray), 0.265 ± 0.00^a mg/g; in data set [8] (cv. Onaway, 2 mM H2O2 spray), 0.170 ± 0.02^a mg/g; in data set [8] (cv. Onaway, 4 mM H2O2 spray) it was 0.164 ± 0.02^a mg/g. Also, the “Caffeic acid of microtubers” value in [8] (cv. Goldrush, 2 mM H2O2 spray) is given as 0.008 ± 0.00^b mg/g; in [8] (cv. Goldrush, 4 mM H2O2 spray), 0.011 ± 0.00^a mg/g; in [8] (cv. Onaway, 2 mM H2O2 spray), 0.002 ± 0.00^a mg/g; in data set [8] (cv. Onaway, 4 mM H2O2 spray), 0.001 ± 0.00^b mg/g. In addition, the “Chlorogenic acid of microtubers” value in data set [8] (cv. Goldrush, 2 mM H2O2 spray) is 0.561 ± 0.02^a mg/g; in [8] (cv. Goldrush, 4 mM H2O2 spray), 0.460 ± 0.02^b mg/g; in [8] (cv. Onaway, 2 mM H2O2 spray), 0.304 ± 0.02^a mg/g; in data set [8] (cv. Onaway, 4 mM H2O2 spray), 0.265 ± 0.04^ab mg/g. In addition, the “Treatment effect on ascorbic acid content” value in [8] (cv. Onaway microtubers) is “not significant”. Moreover, the “Effect on microtuber yield” value in [9] (at the dosage applied (2, 4 mM)) is given as “did not affect yield”. Further, the Microtuber mass in data set [9] (cv. Goldrush, 2 mM H2O2 spray) was 10.25^a g; in [9] (cv. Goldrush, 4 mM H2O2 spray) it was 10.26^a g; in data set [9] (cv. Onaway, 2 mM H2O2 spray), 5.09^a g; in [9] (cv. Onaway, 4 mM H2O2 spray), 5.07^a g.
For `O=C(/C=C/c1ccc(O)c(O)c1)O[C@@H]1C[C@](O)(C(=O)O)C[C@@H](O)[C@H]1O` [chlorogenic acid], the Body weight gain in [2] (setting [10]) is 9.7 ± 4.9^a g; in data set [2] (setting [11]), 7.6 ± 4.1^a g; in data set [2] (setting [12]), 9.8 ± 3.4^a g; in data set [2] (setting [13]), 22.4 ± 0.8^b g; in data set [2] (setting [14]), 18.2 ± 4.1^a,b,c g; in data set [2] (setting [15]) it was 8.8 ± 5.3^c g. Further, the “Effect of pure compound on body weight” value in data set [2] (female mice, up to 200 mg/kg diet) is “no statistically significant effect”. Moreover, the “Effect of pure compound on body weight gain” value in data set [2] (male mice, 8-200 mg/kg diet) was “did not affect body weight gain”. Moreover, the “Dose needed to suppress IL-8 secretion to levels seen in control cultures” value in [5] is 2000 µM. The Carnitine palmitoyltransferase activity entry in data set [4] is reported as “unaffected”. Also, in the data set on male mice, the “Effect on body weight gain” value was “no effect on body weight gain”.
